Measured values from patent US20240317708A1, “INHIBITORS OF TRANSGLUTAMINASES” (ZEDIRA GMBH, priority 2021, published 2024).

Key:
[1] = biological target: T1, recombinant human transglutaminase 2 (Homo sapiens, UniProt P21980); assay: Transglutaminase assay (dansylcadaverine incorporation into dimethylcasein, DCC-assay); format: biochemical; conditions: for IC50: recombinant human TG2 10 nM, dansylcadaverine/dimethylcasein, 37° C.
T1 construct: purchased Zedira T022
T1 sequence (P21980 1-687): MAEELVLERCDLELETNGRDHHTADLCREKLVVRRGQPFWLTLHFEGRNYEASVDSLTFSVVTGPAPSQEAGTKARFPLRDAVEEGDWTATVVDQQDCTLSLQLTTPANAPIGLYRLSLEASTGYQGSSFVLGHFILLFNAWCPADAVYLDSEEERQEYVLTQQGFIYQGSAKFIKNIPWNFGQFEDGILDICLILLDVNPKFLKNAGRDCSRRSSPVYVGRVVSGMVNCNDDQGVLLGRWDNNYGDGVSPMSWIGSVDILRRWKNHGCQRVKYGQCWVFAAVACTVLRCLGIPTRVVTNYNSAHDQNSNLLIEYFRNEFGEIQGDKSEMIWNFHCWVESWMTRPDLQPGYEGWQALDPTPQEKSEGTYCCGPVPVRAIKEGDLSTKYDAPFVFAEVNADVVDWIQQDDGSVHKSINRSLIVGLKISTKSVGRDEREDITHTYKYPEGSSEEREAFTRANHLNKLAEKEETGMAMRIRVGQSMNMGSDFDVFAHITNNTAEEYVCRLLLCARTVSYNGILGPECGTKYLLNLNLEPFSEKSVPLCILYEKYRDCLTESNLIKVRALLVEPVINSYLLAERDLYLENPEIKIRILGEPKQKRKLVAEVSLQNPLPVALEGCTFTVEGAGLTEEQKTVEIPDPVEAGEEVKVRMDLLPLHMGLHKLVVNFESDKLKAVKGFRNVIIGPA
Method in brief: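 IC50 derived from fluorescence slope between 20 and 30 min (λex 330 nm, λem 500 nm, 37 °C), expressed relative to a 2% DMSO control. Reaction: 10 nM recombinant human TG2, 4 μM dimethylcasein, 16.7 μM dansylcadaverine, 10 mM CaCl2 and glutathione, pH 8.0.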

[2] = Log D shake flask method (octanol / PBS pH 7.4, HPLC); format: physicochemical; conditions: octanol/phosphate-buffered saline (PBS); octanol / PBS pH 7.4, shake flask
Method: In order to classify the inventive compounds according to their lipophilicity, Log D values (distribution coefficient) were determined by means of the well-established shake flask method, measuring the partition of a compound between an octanol and phosphate-buffered saline (PBS, pH 7.4) by HPLC.

[3] = Caco-2 permeability assay (CacoReady kit); format: in vitro ADME; conditions: human
Method in brief: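 Caco-2 monolayer barrier, commercial ready-to-use kit, manufacturer protocol. Read-out: Papp.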

IC50 [1]	logD [2]	Papp [3]	times less potent in comparison to compound III-83 ([1]; IC50 ratio vs III-83, Table 1)	Compound
250 to 1500 nM	< 1	< 1 ×10⁻⁶ cm/s		CC(=O)/C=C/CC[C@H](NC(=O)c1ncn(C)n1)C(=O)Nc1cccn(CC(=O)NC2C3CCCC2CC3)c1=O (stereo partly drawn) [III-159, N-((2S,E)-1-(1-(2-(bicyclo[3.2.1]octan-8-ylamino)-2-oxoethyl)-2-oxo-1,2-dihydropyridin-3-ylamino)-1,7-dioxooct-5-en-2-yl)-1-methyl-1H-1,2,4-triazole-3-carboxamide]
250 to 1500 nM	< 1	< 1 ×10⁻⁶ cm/s		COC(=O)/C=C/CC[C@H](NC(=O)c1nonc1N)C(=O)Nc1cccn(CC(=O)NC23CC(C2)C3)c1=O [III-160, (S,E)-methyl 6-(4-amino-1,2,5-oxadiazole-3-carboxamido)-7-(1-(2-(bicyclo[1.1.1]pentan-1-ylamino)-2-oxoethyl)-2-oxo-1,2-dihydropyridin-3-ylamino)-7-oxohept-2-enoate]
250 to 1500 nM	1 to 3	< 1 ×10⁻⁶ cm/s		COC(=O)/C=C/CC[C@H](NC(=O)c1cc2ccc(N(C)C)cc2o1)C(=O)Nc1cccn(CC(=O)NC23CC(C2)C3)c1=O [III-161, (S,E)-methyl 7-(1-(2-(bicyclo[1.1.1]pentan-1-ylamino)-2-oxoethyl)-2-oxo-1,2-dihydropyridin-3-ylamino)-6-(6-(dimethylamino)benzofuran-2-carboxamido)-7-oxohept-2-enoate]
250 to 1500 nM	< 1	< 1 ×10⁻⁶ cm/s		COC(=O)/C=C/CC[C@H](NC(=O)c1cnc(NC(C)=O)s1)C(=O)Nc1cccn(CC(=O)NC23CC(C2)C3)c1=O [III-162, (S,E)-methyl 6-(2-acetamidothiazole-5-carboxamido)-7-(1-(2-(bicyclo[1.1.1]pentan-1-ylamino)-2-oxoethyl)-2-oxo-1,2-dihydropyridin-3-ylamino)-7-oxohept-2-enoate]
250 to 1500 nM	< 1	< 1 ×10⁻⁶ cm/s		COC(=O)/C=C/CC[C@H](NC(=O)c1c[nH]c(C(N)=O)c1)C(=O)Nc1cccn(CC(=O)NC23CC(C2)C3)c1=O [III-163, (S,E)-methyl 7-(1-(2-(bicyclo[1.1.1]pentan-1-ylamino)-2-oxoethyl)-2-oxo-1,2-dihydropyridin-3-ylamino)-6-(5-carbamoyl-1H-pyrrole-3-carboxamido)-7-oxohept-2-enoate]
250 to 1500 nM	< 1	< 1 ×10⁻⁶ cm/s		COC(=O)/C=C/CC[C@H](NC(=O)c1coc(S(N)(=O)=O)c1)C(=O)Nc1cccn(CC(=O)NC2C3CC4CC2CC(NC(C)=O)(C4)C3)c1=O (stereo partly drawn) [III-164, (S,E)-methyl 7-(1-(2-(1-acetylamino-4-aminoadamantane)-2-oxoethyl)-2-oxo-1,2-dihydropyridin-3-ylamino)-7-oxo-6-(5-sulfamoylfuran-3-carboxamido)hept-2-enoate]
25 to 250 nM	1 to 3	< 1 ×10⁻⁶ cm/s		COC(=O)/C=C/CC[C@H](NC(=O)c1ccc2occc2c1)C(=O)Nc1cccn(CC(=O)NC2C3CC4CC2CC(NC(C)=O)(C4)C3)c1=O (stereo partly drawn) [III-165, (S,E)-methyl 6-(benzofuran-5-carboxamido)-7-(1-(2-(1-acetylamino-4-aminoadamantane)-2-oxoethyl)-2-oxo-1,2-dihydropyridin-3-ylamino)-7-oxohept-2-enoate]
25 to 250 nM	1 to 3	< 1 ×10⁻⁶ cm/s		COC(=O)/C=C/CC[C@H](NC(=O)c1ccc2ccoc2c1)C(=O)Nc1cccn(CC(=O)NC2C3CC4CC2CC(C(N)=O)(C4)C3)c1=O (stereo partly drawn) [III-166, (S,E)-methyl 6-(benzofuran-6-carboxamido)-7-(1-(2-(4-aminoadamantane-1-carboxamide)-2-oxoethyl)-2-oxo-1,2-dihydropyridin-3-ylamino)-7-oxohept-2-enoate]
250 to 1500 nM	< 1	< 1 ×10⁻⁶ cm/s		COC(=O)/C=C/CC[C@H](NC(=O)c1nc(C2(C)CC2)no1)C(=O)Nc1cccn(CC(=O)NC2C3CC4CC2CC(C(N)=O)(C4)C3)c1=O (stereo partly drawn) [III-167, (S,E)-methyl 7-(1-(2-(4-aminoadamantane-1-carboxamide)-2-oxoethyl)-2-oxo-1,2-dihydropyridin-3-ylamino)-6-(3-(1-methylcyclopropyl)-1,2,4-oxadiazole-5-carboxamido)-7-oxohept-2-enoate]
250 to 1500 nM	< 1	< 1 ×10⁻⁶ cm/s		COC(=O)/C=C/CC[C@H](NC(=O)c1noc(C)n1)C(=O)Nc1cccn(CC(=O)NC23CC(C2)C3)c1=O [III-168, (S,E)-methyl 7-(1-(2-(bicyclo[1.1.1]pentan-1-ylamino)-2-oxoethyl)-2-oxo-1,2-dihydropyridin-3-ylamino)-6-(5-methyl-1,2,4-oxadiazole-3-carboxamido)-7-oxohept-2-enoate]
25 to 250 nM	< 1	< 1 ×10⁻⁶ cm/s		COC(=O)/C=C/CC[C@H](NC(=O)c1csnn1)C(=O)Nc1cccn(CC(=O)NC23CC(C2)C3)c1=O [III-169, (S,E)-methyl 7-(1-(2-(bicyclo[1.1.1]pentan-1-ylamino)-2-oxoethyl)-2-oxo-1,2-dihydropyridin-3-ylamino)-7-oxo-6-(1,2,3-thiadiazole-4-carboxamido)hept-2-enoate]
25 to 250 nM	< 1	< 1 ×10⁻⁶ cm/s		COC(=O)/C=C/CC[C@H](NC(=O)c1ncns1)C(=O)Nc1cccn(CC(=O)NC23CC(C2)C3)c1=O [III-170, (S,E)-methyl 7-(1-(2-(bicyclo[1.1.1]pentan-1-ylamino)-2-oxoethyl)-2-oxo-1,2-dihydropyridin-3-ylamino)-7-oxo-6-(1,2,4-thiadiazole-5-carboxamido)hept-2-enoate]
25 to 250 nM	< 1	< 1 ×10⁻⁶ cm/s		COC(=O)/C=C/CC[C@H](NC(=O)c1nncs1)C(=O)Nc1cccn(CC(=O)NC23CC(C2)C3)c1=O [III-171, (S,E)-methyl 7-(1-(2-(bicyclo[1.1.1]pentan-1-ylamino)-2-oxoethyl)-2-oxo-1,2-dihydropyridin-3-ylamino)-7-oxo-6-(1,3,4-thiadiazole-2-carboxamido)hept-2-enoate]
25 to 250 nM	< 1	< 1 ×10⁻⁶ cm/s		COC(=O)/C=C/CC[C@H](NC(=O)c1snnc1C1CC1)C(=O)Nc1cccn(CC(=O)NC23CC(C2)C3)c1=O [III-172, (S,E)-methyl 7-(1-(2-(bicyclo[1.1.1]pentan-1-ylamino)-2-oxoethyl)-2-oxo-1,2-dihydropyridin-3-ylamino)-6-(4-cyclopropyl-1,2,3-thiadiazole-5-carboxamido)-7-oxohept-2-enoate]
25 to 250 nM	< 1	< 1 ×10⁻⁶ cm/s		COC(=O)/C=C/CC[C@H](NC(=O)c1cnsn1)C(=O)Nc1cccn(CC(=O)NC23CC(C2)C3)c1=O [III-173, (S,E)-methyl 7-(1-(2-(bicyclo[1.1.1]pentan-1-ylamino)-2-oxoethyl)-2-oxo-1,2-dihydropyridin-3-ylamino)-7-oxo-6-(1,2,5-thiadiazole-3-carboxamido)hept-2-enoate]
250 to 1500 nM	1 to 3	< 1 ×10⁻⁶ cm/s		COC(=O)/C=C/CC[C@H](NC(=O)c1snnc1C=O)C(=O)Nc1cccn(CC(=O)NC2(C(=O)O)C3CC4CC2CC(C(F)(F)F)(C4)C3)c1=O (stereo partly drawn) [III-174, (S,E)-methyl 6-(4-formyl-1,2,3-thiadiazole-5-carboxamido)-7-(1-(2-(2-carboxy-2-amino-5-(trifluoromethyl)adamantane)-2-oxoethyl)-2-oxo-1,2-dihydropyridin-3-ylamino)-7-oxohept-2-enoate]
250 to 1500 nM	1 to 3	< 1 ×10⁻⁶ cm/s		COC(=O)/C=C/CC[C@H](NC(=O)c1snnc1CO)C(=O)Nc1cccn(CC(=O)NC2C3CC4CC(C3)CC2C4)c1=O (stereo partly drawn) [III-175, (S,E)-methyl 6-(4-(hydroxymethyl)-1,2,3-thiadiazole-5-carboxamido)-7-(1-(2-(2-adamantylamino)-2-oxoethyl)-2-oxo-1,2-dihydropyridin-3-ylamino)-7-oxohept-2-enoate]
250 to 1500 nM	1 to 3	< 1 ×10⁻⁶ cm/s	more than 25 times	COC(=O)/C=C/CC[C@H](NC(=O)c1cccnc1)C(=O)Nc1cccn(CC(=O)NCCc2ccccc2)c1=O [Ref. 5, reference compound]
